In patent US8883836B2, “Solid forms of bendamustine hydrochloride” (Cephalon, Inc., priority 2008, dated 2014):

Legend:
[1] = Light Stability (Suntest Light Box); format: physicochemical; details: for change in crystallinity and purity during light stress test: 25° C.; for Purity (%): HPLC
Protocol: Light Stability of Bendamustine Hydrochloride
Samples of Form 1 and Form 2 of Bendamustine Hydrochloride were stressed in a Suntest Light Box with a light intensity of 250 watts/m2 for 1 week with the black body temperature set to 25° C. A blank of each sample, wrapped in foil for protection, was also included in the experiment. After the experiment, samples were analyzed by XRPD and the purity was determined by HPLC.

[2] = Stability of Forms 1 and 2 (temperature/humidity storage, XRPD); format: physicochemical; details: for purity after storage: 4° C./87% RH (5) and 60° C./75% RH (13) for 6 weeks; for kinetic stability on storage: 6 weeks at 4° C./34 to 76% RH, 25° C./43 to 75% RH and 60° C./11 to 75% RH
Protocol: Stability of Forms 1 and 2 of Bendamustine Hydrochloride
10 mg of bendamustine hydrochloride Form 1 (A), bendamustine hydrochloride Form 2 (B), and a 1:1 mixture of Forms 1 and 2 (C) were stored under the conditions listed in Table 7. Samples were analyzed by XRPD at 1 day, 2 week, and 6 week time points. […] The rate of this conversion appears to increase with temperature. The purity of Forms 1 and 2 after storage at 4° C./87% RH (5) and 60° C./75% RH (13) for 6 weeks was measured.

[3] = Storage of solid forms under temperature/humidity or ambient conditions, XRPD re-analysis; format: physicochemical; details: for change on storage: 24 hours under ambient conditions
[4] = Gravimetric Vapor Sorption (GVS); format: physicochemical; details: for solid form by XRPD re-analysis after GVS humidity cycles: reanalysis under ambient conditions, hydrochloride
Protocol: Gravimetric Vapor Sorption (GVS)
Sorption isotherms were obtained using a Hiden IGASorp moisture sorption analyser, controlled by CFRSorp software. The sample temperature was maintained at 25° C. by a Huber recirculating water bath. The humidity was controlled by mixing streams of dry and wet nitrogen, with a total flow rate of 250 ml·min-1. The relative humidity was measured by a calibrated Vaisala RH probe (dynamic range of 0-95% RH), located near the sample. The weight change, (mass relaxation) of the sample as a function of % RH was constantly monitored by themicrobalance (accuracy ±0.001 mg). Typically 1-3 mg of sample was placed in a tared mesh stainless steel basket under ambient conditions. The sample was loaded and unloaded at 40% RH and 25° C. (typical room conditions). A moisture sorption isotherm was performed as outlined below (2 scans giving 1 complete cycle). The standard isotherm was performed at 25° C. at 10% RH intervals over a 0-90% RH range.
The software uses a least squares minimization procedure together with a model of the mass relaxation, to predict an asymptotic value. The measured mass relaxation value must be within 5% of that predicted by the software before the next % RH value is selected. The minimum equilibration time was set to 1 hour and the maximum to 4 hours.

[5] = Log P Determination (potentiometric titration, octanol:ISA water); format: physicochemical
Description: Data were collected by potentiometric titration on a Sirius GlpKa instrument using three ratios of octanol:ionic-strength adjusted (ISA) water to generate Log P, Log Pion, and Log D values. The data were refined using Refinement Pro software v1.0. Prediction of Log P values was made using ACD v9 and Syracuse KOWWIN v1.67 software.

[6] = pKa Determination (Sirius GlpKa, UV); format: physicochemical; details: by UV in aqueous conditions, 25° C.
Protocol: pKa Determination and Prediction
Data were collected on a Sirius GlpKa instrument with a D-PAS attachment. Measurements were made at 25° C. in aqueous solution by UV. The compound was initially dissolved in DMSO at 5 mg/ml of which 50 μl (0.25 mg) was used for the titration from pH 1.3 to 9.0. The titration media was ionic-strength adjusted (ISA) with 0.15 M KCl (aq). The data were refined using Refinement Pro software v1.0. Prediction of pKa values was made using ACD pKa prediction software v9.

[7] = Thermodynamic Aqueous Solubility by HPLC; format: physicochemical
Protocol: Thermodynamic Aqueous Solubility by HPLC
Aqueous solubility was determined by suspending sufficient compound in 0.25 ml of water to give a maximum final concentration of ≧10 mg·ml^−1 of the parent free-form of the compound. The suspension was equilibrated at 25° C. for 24 hours (unless otherwise stated) after which the pH was measured. The suspension was then filtered through a glass fibre C filter into a 96 well plate. The filtrate was then diluted by a factor of 100 times. Quantitation was by HPLC with reference to a standard solution of approximately 0.1 mg·ml-1 in DMSO. Different volumes of the standard, diluted and undiluted sample solutions were injected. The solubility was calculated using the peak areas determined by integration of the peak found at the same retention time as the principal peak in the standard injection.

[8] = Maturation Experiment (slurry of Form 1 in solvents, XRPD); format: physicochemical; details: slurry 48 hours, 4 hour periods at 50 C and ambient
Protocol: Approximately 10 mg of Form 1 bendamustine hydrochloride was slurried in the solvents list in Table 3. The slurries were shaken for 48 hours with alternating 4 hour periods at 50 C and ambient temperature. Any solid material was then isolated by filtration and analyzed by XRPD. Solutions were allowed to evaporate.

[9] = Preparation of solutions: solubility of Form 1 in solvents; details: for Volume Added: 50 mg Form 1, aliquots with heating to 50° C. until clear solution
Protocol: Preparation of Solutions of Bendamustine Hydrochloride
50 mg of bendamustine hydrochloride Form 1 was weighed into a screw-top vial. Solvent was added in aliquots (with heating to 50° C.) until a clear solution was obtained.

[10] = 250 watts/m2, 1 week, hydrochloride
[11] = blank wrapped in foil, 1 week in light box
[12] = light stressed, 250 watts/m2, 1 week, hydrochloride
[13] = 1 week at 40° C./75% RH, hydrochloride

Cl.Cn1c(CCCC(=O)O)nc2cc(N(CCCl)CCCl)ccc21 [Form 2, bendamustine hydrochloride]
change in crystallinity and purity during light stress test [1, 10]: significant decrease in both crystallinity and purity | XRPD [1, 11]: No change | Purity (%) ([1]; blank wrapped in foil, 1 week in light box, listed as Form 2 blank, hydrochloride): 95.6% | Purity (%) [1, 12]: 68.7% | XRPD [1, 12]: Less crystalline (sample brown in colour) | purity after storage [2]: No large purity decreases | kinetic stability on storage [2]: kinetically stable | conversion of Form 2 to Form 1 on storage ([2]; after 6 weeks): No conversion of Form 2 to Form 1 | change on storage (XRPD) ([3]; one month at 40° C./11% RH): became less crystalline | change on storage (XRPD) ([3]; one month at 40° C./75% RH): no significant changes | uptake during GVS analysis ([4]; between 10 and 15% RH, equating to 1 mole of water): 4% | solid form by XRPD re-analysis after GVS humidity cycles [4]: partial conversion occurred

Cl.Cn1c(CCCC(=O)O)nc2cc(N(CCCl)CCCl)ccc21 [Amorphous bendamustine hydrochloride, bendamustine hydrochloride]
change on storage (XRPD) [3, 13]: partial crystallization occurred | change on storage ([3]; hydrochloride): became gummy | hygroscopicity ([3]; inferred from 24 hours under ambient conditions): hygroscopic | solid form by XRPD re-analysis after GVS humidity cycles [4]: converted to Form 2

Cl.Cn1c(CCCC(=O)O)nc2cc(N(CCCl)CCCl)ccc21 [Form 1, bendamustine hydrochloride]
change in crystallinity and purity during light stress test [1, 10]: only a slight decrease in purity | stability to degradation in light ([1]; as compared to Form 2): more stable to degradation in light | XRPD [1, 11]: No change | Purity (%) ([1]; blank wrapped in foil, 1 week in light box, listed as Form 1 blank, hydrochloride): 97.3% | Purity (%) [1, 12]: 95.9% | XRPD [1, 12]: No change (sample brown in colour) | LogP ([5]; octanol:ISA water): 1.10 | LogD ([5]; pH7.4): 0.68 | purity after storage [2]: No large purity decreases | kinetic stability on storage [2]: kinetically stable | form conversion on storage at high humidity ([2]; 60° C./95% RH, 25° C. 94% RH and possibly 4° C./88% RH for 6, 6 and 2 weeks respectively): conversion of Form 1 to 2 | form conversion under high humidity conditions ([2]; ~90% RH, rate appears to increase with temperature): conversion of Form 1 of bendamustine hydrochloride to Form 2 was observed | pKa (Acid) [6]: 4.17 | solution pH ([7]; saturated aqueous solution of the solubility experiment): 2.16 | degradation of sample in aqueous solubility experiment ([7]; water): significant degradation occurred | aqueous solubility ([7]; water, 25° C., 24 hours, significant degradation occurred): 4500 µg/mL | XRPD Analysis after maturation ([8]; Acetone): Form 1 | XRPD Analysis after maturation ([8]; Acetonitrile): Form 1 | XRPD Analysis after maturation ([8]; Anisole): Form 1 | XRPD Analysis after maturation ([8]; DCM): Form 1 | XRPD Analysis after maturation ([8]; DIPE): Form 1 | XRPD Analysis after maturation ([8]; Diethyl ether): Form 1 | XRPD Analysis after maturation ([8]; Dioxane): Form 1 | XRPD Analysis after maturation ([8]; Ethanol): Form 1 | XRPD Analysis after maturation ([8]; Ethyl acetate): Form 1 | XRPD Analysis after maturation ([8]; Heptane): Form 1 | XRPD Analysis after maturation ([8]; IPA): Form 1 | XRPD Analysis after maturation ([8]; Isopropyl acetate): Form 1 | XRPD Analysis after maturation ([8]; MIBK): Form 1 | XRPD Analysis after maturation ([8]; Methyl acetate): Form 1 | XRPD Analysis after maturation ([8]; Nitromethane): Form 1 | XRPD Analysis after maturation ([8]; TBME): Form 1 | XRPD Analysis after maturation ([8]; THF): Form 1 | XRPD Analysis after maturation ([8]; Toluene): Form 1 | XRPD Analysis after maturation ([8]; Water): degradant | change on storage (XRPD) [3, 13]: no significant changes | change on storage (XRPD) ([3]; 2 months at 25° C./94% RH): converted to a hydrate of bendamustine hydrochloride (Form 2) | change on storage (XRPD) ([3]; 3 weeks at 40° C./11% RH): no significant changes | change on storage (XRPD) ([3]; one month at 25° C./94% RH): in the process of converting to Form 2 | Solution Obtained? ([9]; Acetic acid, 50 mg in 1 ml): Yes (50° C.) | Volume Added ([9]; Acetic acid): 1000 µL | Solution Obtained? ([9]; DMA, 50 mg in 500 μl): Yes (50° C.) | Volume Added ([9]; DMA): 500 µL | Solution Obtained? ([9]; DMF, 50 mg in 500 μl): Yes (50° C.) | Volume Added ([9]; DMF): 500 µL | Solution Obtained? ([9]; DMSO, 50 mg in 100 μl): Yes (50° C.) | Volume Added ([9]; DMSO): 100 µL | Solution Obtained? ([9]; Ethanol, 50 mg in 1 ml): Yes (50° C.) | Volume Added ([9]; Ethanol): 1000 µL | Solution Obtained? ([9]; Formamide, 50 mg in 1 ml): Yes (50° C.) | Volume Added ([9]; Formamide): 1000 µL | Solution Obtained? ([9]; Methanol, 50 mg in 100 μl): Yes (50° C.) | Volume Added ([9]; Methanol): 100 µL | hygroscopicity ([4]; GVS, 0 to 90% RH): low hygroscopicity | weight increase (hygroscopicity) ([4]; between 0 and 90% relative humidity (RH)): 0.7% | solid form by XRPD re-analysis after GVS humidity cycles [4]: did not lead to a significant change in XRPD pattern

Cl.Cn1c(CCCC(=O)O)nc2cc(N(CCCl)CCCl)ccc21 [Form 3, bendamustine hydrochloride]
change on storage (XRPD) ([3]; 1 month under ambient conditions): No significant changes | change on storage (XRPD) [3, 13]: conversion to Form 2

Cl.Cn1c(CCCC(=O)O)nc2cc(N(CCCl)CCCl)ccc21 [Form 4, bendamustine hydrochloride]
change on storage ([3]; hydrochloride): converted to Form 2
